# Several values for one entry are separate records, joined by “and”; a condition that tells them apart may be missing. Equal entries are not always repeated. Inconclusive results are not listed.
# Test system: Nude mice, LX-1 lung xenograft intrarenal, tumor weight T/C
# Test: NCI In Vivo Anticancer Drug Screen. Data for tumor model Human Lung LX-1 Xenograft (intrarenal inoculation) in NU/NU BALB/C (nude) mice
# Details: endpoint: mean tumor weight change, higher = larger tumour
# Experimental: The antitumor activity of compounds was measured in mice bearing transplantable tumors. Survival or tumor size were measured and the results are expressed as the measurement made in the treated group (T) divided by the measurement made in the vehicle treated control group (C). The tumor model used in this assay is Human Lung LX-1 Xenograft (intrarenal inoculation) in NU/NU BALB/C (nude) mice
# [1] = dose: 50.0 mg/kg/injection, schedule: Q01DX010 (sc), vehicle: saline
# [2] = dose: 100.0 mg/kg/injection, schedule: Q01DX010 (sc), vehicle: saline
# [3] = dose: 200.0 mg/kg/injection, schedule: Q01DX010 (sc), vehicle: saline
# [4] = dose: 400.0 mg/kg/injection, schedule: Q01DX010 (sc), vehicle: saline
structure (smiles),measurement,setting,value
O=C1NC(O)CCN1C1OC(CO)C(O)C1O (stereo not drawn),T/C,"dose: 200.0 mg/kg/injection, schedule: Q01DX010 (sc), vehicle: water",257 % of control
same,T/C,"dose: 400.0 mg/kg/injection, schedule: Q01DX010 (sc), vehicle: water",196 % of control
same,T/C,"dose: 800.0 mg/kg/injection, schedule: Q01DX010 (sc), vehicle: water",223 % of control
same,T/C,"dose: 1600.0 mg/kg/injection, schedule: Q01DX010 (sc), vehicle: water",176 % of control
Cc1c(-c2ccc(-c3ccccc3F)cc2)nc2ccc(F)cc2c1C(=O)O,T/C,"dose: 6.9 mg/kg/injection, schedule: Q01DX009 (ip), vehicle: water",7 % of control and 13 % of control and 31 % of control
same,T/C,"dose: 19.2 mg/kg/injection, schedule: Q01DX009 (ip), vehicle: water",5 % of control and 14 % of control and 21 % of control
same,T/C,"dose: 32.0 mg/kg/injection, schedule: Q01DX009 (ip), vehicle: water",15 % of control and 17 % of control
COC1N(C2CC(O)C(CO)O2)C(=O)NC(=O)C1(F)Br (stereo not drawn),T/C,"dose: 12.5 mg/kg/injection, schedule: Q01DX010 (sc), vehicle: saline",54 % of control
same,T/C,[1],12 % of control and 24 % of control
same,T/C,[2],12 % of control and 13 % of control
CC(C)C(N)C(=O)Nc1nncs1 (stereo not drawn),T/C,"dose: 150.0 mg/kg/injection, schedule: Q04DX003 (sc), vehicle: saline",102 % of control
same,T/C,"dose: 300.0 mg/kg/injection, schedule: Q04DX003 (sc), vehicle: saline",74 % of control
same,T/C,"dose: 600.0 mg/kg/injection, schedule: Q04DX003 (sc), vehicle: saline",78 % of control
O=C(CCCCCCC(=O)ON1C(=O)CCC1=O)ON1C(=O)CCC1=O,T/C,"dose: 300.0 mg/kg/injection, schedule: Q04DX003 (sc), vehicle: saline with Tween-80",104 % of control
same,T/C,"dose: 600.0 mg/kg/injection, schedule: Q04DX003 (sc), vehicle: saline with Tween-80",95 % of control
same,T/C,"dose: 1200.0 mg/kg/injection, schedule: Q04DX003 (sc), vehicle: saline with Tween-80",89 % of control
same,T/C,"dose: 2400.0 mg/kg/injection, schedule: Q04DX003 (sc), vehicle: saline with Tween-80",72 % of control
NC(=O)NO,T/C,[3],60 % of control
same,T/C,[4],105 % of control
CNNCc1ccc(C(=O)NC(C)C)cc1,T/C,"dose: 50.0 mg/kg/injection, schedule: Q01DX010 (ip), vehicle: saline",-66 % of control
same,T/C,[1],2 % of control and 11 % of control
same,T/C,"dose: 100.0 mg/kg/injection, schedule: Q01DX010 (ip), vehicle: saline",-100 % of control
same,T/C,[2],8 % of control
same,T/C,"dose: 166.66 mg/kg/injection, schedule: Q04DX003 (sc), vehicle: saline",5 % of control
same,T/C,[3],-71 % of control
same,T/C,"dose: 333.33 mg/kg/injection, schedule: Q04DX003 (sc), vehicle: saline",-38 % of control
same,T/C,[4],-65 % of control
same,T/C,"dose: 666.65 mg/kg/injection, schedule: Q04DX003 (sc), vehicle: saline",-14 % of control
Oc1c(Cl)cc(Cl)cc1C=NCCSc1ccc(Cl)cc1,T/C,"dose: 150.0 mg/kg/injection, schedule: Q04DX003 (ip), vehicle: Klucel (hydroxypropylcellulose) (HPC)",71 % of control
same,T/C,"dose: 1200.0 mg/kg/injection, schedule: Q04DX003 (ip), vehicle: Klucel (hydroxypropylcellulose) (HPC)",70 % of control
C/C(=C\c1ccccc1)[N+](=O)[O-],T/C,"dose: 50.0 mg/kg/injection, schedule: Q01DX010 (sc), vehicle: Klucel (hydroxypropylcellulose) (HPC)",96 % of control
same,T/C,"dose: 100.0 mg/kg/injection, schedule: Q01DX010 (sc), vehicle: Klucel (hydroxypropylcellulose) (HPC)",97 % of control
same,T/C,"dose: 200.0 mg/kg/injection, schedule: Q01DX010 (sc), vehicle: Klucel (hydroxypropylcellulose) (HPC)",15 % of control
Cc1cc(=NO)cc(C)n1O,T/C,"dose: 300.0 mg/kg/injection, schedule: Q04DX003 (sc), vehicle: distilled water + alcohol",102 % of control
same,T/C,"dose: 600.0 mg/kg/injection, schedule: Q04DX003 (sc), vehicle: distilled water + alcohol",102 % of control
same,T/C,"dose: 1200.0 mg/kg/injection, schedule: Q04DX003 (sc), vehicle: distilled water + alcohol",60 % of control
O=C(Nc1cc(Cl)ccc1C(=O)O)c1cccc(C[n+]2ccccc2)c1,T/C,"dose: 150.0 mg/kg/injection, schedule: Q04DX003 (ip), vehicle: saline with Tween-80",67 % of control
same,T/C,"dose: 300.0 mg/kg/injection, schedule: Q04DX003 (ip), vehicle: saline with Tween-80",100 % of control

# — PubChem BioAssay AID266 (DTP/NCI, 2004)
